Test system: U87MG cells
Assay: Cytotoxicity assay (cell viability, CellTiter 96 Aqueous MTS)
Format: cell-based
Details: Homo sapiens, U-87 MG, 72 h, 72 hours incubation, starting concentration 50 uM, 9 point half log dilution, average where tested repeatedly
Description: Example 3: Cytotoxicity Assay
U87MG cells were plated at a density of 7×10^3 cells/well and allowed to seed overnight. Cells were then treated with compounds from Table 1 or CMPD-1 (4-(2′-fluoro-[1,1′-biphenyl]-4-yl)-N-(4-hydroxyphenyl)butanamide as a positive control) were added to cells at a starting concentration of 50 uM, with a 9 point half log dilution, and incubated for 72 hours prior to viability determination. IC50 values were calculated from cell viability as measured using the CellTiter 96® Aqueous MTS reagent from Promega©, and the results are shown in Table 2.

For `Cc1nc(C(=O)NCCCc2ccc(-c3ccccc3F)cc2)cs1` [Compound 141, N-(3-(2′-fluoro-[1,1′-biphenyl]-4-yl)propyl)-2-methylthiazole-4-carboxamide], the IC50 was greater than 5 µM.
For `CC(C)c1cc(C(=O)NCCCc2ccc(-c3ccccc3F)cc2)n(C)n1` [Compound 142, N-(3-(2′-fluoro-[1,1′-biphenyl]-4-yl)propyl)-3-isopropyl-1-methyl-1H-pyrazole-5-carboxamide], the IC50 was greater than 5 µM.
For `Cn1nc2ccccc2c1C(=O)NCCCc1ccc(-c2ccccc2F)cc1` [Compound 143, N-(3-(2′-fluoro-[1,1′-biphenyl]-4-yl)propyl)-2-methyl-2H-indazole-3-carboxamide], the IC50 was greater than 5 µM.
For `Cc1noc(C)c1C(=O)NCCCc1ccc(-c2ccccc2F)cc1` [Compound 144, N-(3-(2′-fluoro-[1,1′-biphenyl]-4-yl)propyl)-3,5-dimethylisoxazole-4-carboxamide], the IC50 was greater than 5 µM.
`Cc1cnoc1C(=O)NCCCc1ccc(-c2ccccc2F)cc1` [Compound 145, N-(3-(2′-fluoro-[1,1′-biphenyl]-4-yl)propyl)-4-methylisoxazole-5-carboxamide] gave an IC50 greater than 5 µM.
For `Cn1cc(C(=O)NCCCc2ccc(-c3ccccc3F)cc2)cn1` [Compound 146, N-(3-(2′-fluoro-[1,1′-biphenyl]-4-yl)propyl)-1-methyl-1H-pyrazole-4-carboxamide], the IC50 was 1 to 5 µM.
`Cn1ncc2cc(-c3ccc(CCCC(=O)Nc4cccnc4)cc3)ccc21` [Compound 148, 4-(4-(1-methyl-1H-indazol-5-yl)phenyl)-N-(pyridin-3-yl)butanamide] was tested, and the IC50 was less than 0.5 µM.
`O=C(CCCc1ccc(-c2cccc(F)c2F)cc1)Nc1cccnc1` [Compound 149, 4-(2′,3′-difluoro-[1,1′-biphenyl]-4-yl)-N-(pyridin-3-yl)butanamide] gave an IC50 of 0.501 to 1 µM.
Work on `O=C(CCCc1ccc(-c2ccccc2)cc1)Nc1cccnc1` [Compound 151, 4-([1,1′-biphenyl]-4-yl)-N-(pyridin-3-yl)butanamide] yielded an IC50 of 1 to 5 µM.
Work on `Cc1ccccc1-c1ccc(CCCC(=O)Nc2cccnc2)cc1` [Compound 152, 4-(2′-methyl-[1,1′-biphenyl]-4-yl)-N-(pyridin-3-yl)butanamide] yielded an IC50 greater than 5 µM.
With `Cc1ccc(-c2ccc(CCCC(=O)Nc3cccnc3)cc2)cn1` [Compound 153, 4-(4-(6-methylpyridin-3-yl)phenyl)-N-(pyridin-3-yl)butanamide] the IC50 was greater than 5 µM.
`O=C(CCCc1ccc(-c2ccccc2OC(F)(F)F)cc1)Nc1cccnc1` [Compound 154, N-(pyridin-3-yl)-4-(2′-(trifluoromethoxy)-[1,1′-biphenyl]-4-yl)butanamide] was tested, and the IC50 was 1 to 5 µM.
Work on `O=C(CCCc1ccc(-c2ccc(C(F)(F)F)nc2)cc1)Nc1cccnc1` [Compound 155, N-(pyridin-3-yl)-4-(4-(6-(trifluoromethyl)pyridin-3-yl)phenyl)butanamide] yielded an IC50 of 0.501 to 1 µM.
In the case of `Cc1cc(-c2ccc(CCCC(=O)Nc3cccnc3)cc2)ccn1` [Compound 156, 4-(4-(2-methylpyridin-4-yl)phenyl)-N-(pyridin-3-yl)butanamide], the IC50 is reported as greater than 5 µM.
In the case of `O=C(CCCc1ccc(-c2ccc(F)cc2F)cc1)Nc1cccnc1` [Compound 157, 4-(2′,4′-difluoro-[1,1′-biphenyl]-4-yl)-N-(pyridin-3-yl)butanamide], the IC50 is reported as 1 to 5 µM.
For `O=C(CCCc1ccc(-c2cccnc2)cc1)Nc1cccnc1` [Compound 158, N-(pyridin-3-yl)-4-(4-(pyridin-3-yl)phenyl)butanamide], the IC50 was greater than 5 µM.
For `O=C(CCCc1ccc(-c2c(F)cccc2F)cc1)Nc1cccnc1` [Compound 159, 4-(2′,6′-difluoro-[1,1′-biphenyl]-4-yl)-N-(pyridin-3-yl)butanamide], the IC50 was 1 to 5 µM.
With `O=C(CCCc1ccc(-c2ccccc2Cl)cc1)Nc1cccnc1` [Compound 160, 4-(2′-chloro-[1,1′-biphenyl]-4-yl)-N-(pyridin-3-yl)butanamide] the IC50 was 1 to 5 µM.
Work on `O=C(CCCc1ccc(-c2ccc3nonc3c2)cc1)Nc1cccnc1` [Compound 161, 4-(4-(benzo[c][1,2,5]oxadiazol-5-yl)phenyl)-N-(pyridin-3-yl)butanamide] yielded an IC50 greater than 5 µM.

Source: patent US12247010B2, “Tubulin inhibitors” (LIN BIOSCIENCE PTY LTD., priority 2017, dated 2025)
